3 compounds from BindingDB's records for doi:10.1107/s0907444999007350 (Berlex, 1999) can be followed below.

pKi: −log10 of the molar value.

Chain of Coagulation factor X (P00742 41-179 limits assumed): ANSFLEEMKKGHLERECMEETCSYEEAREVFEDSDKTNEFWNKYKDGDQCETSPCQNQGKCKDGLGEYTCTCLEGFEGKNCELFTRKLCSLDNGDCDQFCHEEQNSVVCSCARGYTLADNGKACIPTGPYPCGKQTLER
Chain of Coagulation factor X (P00742 235-488 limits assumed): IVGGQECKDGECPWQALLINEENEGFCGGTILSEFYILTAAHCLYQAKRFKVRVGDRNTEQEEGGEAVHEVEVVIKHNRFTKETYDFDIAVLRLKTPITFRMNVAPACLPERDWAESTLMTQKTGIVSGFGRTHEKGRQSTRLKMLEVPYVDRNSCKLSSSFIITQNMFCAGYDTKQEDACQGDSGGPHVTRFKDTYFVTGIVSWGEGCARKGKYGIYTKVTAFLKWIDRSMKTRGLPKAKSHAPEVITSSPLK

The target in this test is Coagulation factor X (Homo sapiens, UniProt P00742). Put plainly: Enzyme Inhibition Assay. The note with it: pH 7.5; 22 °C. The method, then:
The enzyme activities were determined kinetically as the initial rate of cleavage of a peptide p-nitroanilide. Km for enzyme and substrate was determined using four substrate dilutions. Enzyme was incubated with test compounds for 10 min; the reaction was then started by the addition of the substrate. […] IC50 values for inhibitors were determined from the dose response curve by fitting the data to the Hill equation. Ki,app values were calculated as the IC50/2, with the IC50 value determined at a substrate concentration equal to Km
In the case of `[H]/N=C(/C)N1CCC(Oc2ccc3c4ccccc4n(Cc4ccc5ccc(C(=N)N)cc5c4)c3c2)CC1` [ZK-806450], the pKi was 8.80. `Cc1c(F)c(Oc2cccc(C(=N)N)c2)nc(Oc2cccc(C(=N)N)c2)c1F` gave a pKi of 7.85. This pKi is 0.95 log units lower than that of the compound before. `CN1CCN=C1c1cccc(Oc2nc(Oc3cc(C(=N)N)ccc3O)c(F)c(N3CCCC(C(=O)O)C3)c2F)c1` (stereo not drawn) [1-[2-(5-carbamimidoyl-2-hydroxyphenoxy)-3,5-difluoro-6-[3-(1-methyl-4,5-dihydro-1H-imidazol-2-yl)phenoxy]pyridin-4-yl]piperidine-3-carboxylic acid]: the pKi was 9.96.

Usually pKi stands for the Ki on a negative log10 scale, so that one unit is a factor of ten. Lower therefore signals a high Ki.
